Assay results from patent publication EP0043274A2, “Antithrombotic treatment” (priority 1980, dated 1982).

How the values were obtained:
platelet rich plasma [1] = assay: Platelet aggregation in platelet rich plasma from injected rabbit (ex vivo); settings: injected with about 72 mg/kg of body weight; blood sample after 5 hours
Description: A rabbit is injected with about +72 mg/kg of body weight of triethyl amine bisulfite. After a period of 5 hours, a blood sample was withdrawn and centrifuged at 1000 r.p.m. (220 g) for 10 minutes to give a platelet rich plasma. […] It is concluded that triethyl amine bisulfite is an agent which inhibits thrombotic condition formation in vivo.
A rabbit is injected with about 72 mg/kg of body weight of sodium formaldehyde bisulfite. After a period of 5 hours, a blood sample was withdrawn and centrifuged at 1000 r.p.m. (220 g) for 10 minuts to give a platelet rich plasma. […] It is concluded that sodium formaldehyde bisulfite is an agent which inhibits thrombus formation in vivo.

platelet rich plasma [2] = assay: Platelet aggregation in platelet rich plasma, ADP stimulus (Example 25); format: cell-based; settings: plasma first treated with the compound
Description: Plasma was centrifuged at 1000 r.p.m. (200 g) to prepare a platelet rich plasma. Using adosine diphosphate (ADP) as a stimulous, rapid aggregation of platelets in the plasma was efected. On the other hand, when such plasma is first treatd with (a) tetramethyl ammonium sulfite, (b) tetramethyl ammonium bisulfite, and then (c) tetrabutyl

rat plasma = assay: Blood coagulation tests (PT, PTT, coagulation factors) in vitro; format: biochemical
Description: The alkali metalbisulfites, sodium and potassium, and ammonium bisulfite are found to prolong PT and PTT in a dose-related fashion.

human plasma [3] = assay: Thrombin time (TT) in vitro, standard method; format: biochemical; settings: U.S.P. grade, control 12.00
Description: (§1) The effect of U.S.P. grade sodium bisulfite on blood coagulation factors is evaluated by standard procedures (Biggs) and the results are shown in Table III below.

F VIII = molecular target: T1, F VIII (Homo sapiens, UniProt P00451); assay: Coagulation factor assay (Biggs): Factor VIII; format: biochemical; settings: for F VIII (%): U.S.P. grade, control 57
T1 construct: from tissue; host or cells: human plasma
Description: as §1
(§2) References for PT, PTT, and assays of all the coagulation factors can be found in a standard textbook, entitled "Human Blood Coagulation, Haemostasis and Thrombosis", edited by Rosemary Biggs, published by Blackwell Scientific Publications, Oxford, England (2nd edition), pages 670-705, 1976.

[4] = test system: human platelet rich plasma; assay: Platelet aggregation in platelet rich plasma, platelet aggregometer (technique of Born); format: cell-based; settings: 1 millimole (mM); induced by optimal concentrations of ADP, collogen, epinephrine, and arachidonic acid
Description: A present preference for purposes of evaluating an - antithrombotic effect is to withdraw samples of blood from a patient undergoing treatment and to measure platelet aggregation. One method is described in the paper by Born in Nature 194, pp. 927-929 (1962), which may be used for this purpose if desired.
That sodium bisulfite is an antiplatelet aggregatory agent is shown by using a platelet aggregometer based on the technique of Born (above cited).
Platelet rich plasma from rabbit and men was prepared by the centrugation technique referenced in Example 13. Using ADP (adosine diphosphate) as a stimulus rapid aggregation of platelets occurred. […] This procedure is described in the article by Born in Nature, Vol. 194, pgs. 927-929 (1962).
Platelet rich plasma from rabbits and men was prepared by the centrugation technique referenced in Example 13. Using ADP (adosine diphosphate) arachidonic acid as a stimulus, rapid aggregation of platelets occurred. […] This procedure is described in the article by Born, Nature, Vol. 194, pgs. 927-929 (1962).

FACTOR V = molecular target: T2, FACTOR V (Homo sapiens, UniProt P12259); assay: Coagulation factor assay (Biggs): Factor V; format: biochemical; settings: U.S.P. grade, control 75
T2 construct: from tissue; host or cells: human plasma
Description: as §1, §2

human plasma [5] = assay: Blood coagulation evaluation by standard procedures (Biggs), overall result; format: biochemical; settings: 5 mg/ml
Description: as §1
When this procedure is repeated using human plasma,
References for PT, PTT, and assays in vitro of all the coagulation factors can be found in a standard textbook, entitled "Human Blod Coagulation, Haemostatis and Thrombosis", edited by Rosemary Biggs, published by Blackwell Scientific Publications, Oxford, England (2nd edition), pages 670-705, 1976.

T2 sequence (P12259 29-2224): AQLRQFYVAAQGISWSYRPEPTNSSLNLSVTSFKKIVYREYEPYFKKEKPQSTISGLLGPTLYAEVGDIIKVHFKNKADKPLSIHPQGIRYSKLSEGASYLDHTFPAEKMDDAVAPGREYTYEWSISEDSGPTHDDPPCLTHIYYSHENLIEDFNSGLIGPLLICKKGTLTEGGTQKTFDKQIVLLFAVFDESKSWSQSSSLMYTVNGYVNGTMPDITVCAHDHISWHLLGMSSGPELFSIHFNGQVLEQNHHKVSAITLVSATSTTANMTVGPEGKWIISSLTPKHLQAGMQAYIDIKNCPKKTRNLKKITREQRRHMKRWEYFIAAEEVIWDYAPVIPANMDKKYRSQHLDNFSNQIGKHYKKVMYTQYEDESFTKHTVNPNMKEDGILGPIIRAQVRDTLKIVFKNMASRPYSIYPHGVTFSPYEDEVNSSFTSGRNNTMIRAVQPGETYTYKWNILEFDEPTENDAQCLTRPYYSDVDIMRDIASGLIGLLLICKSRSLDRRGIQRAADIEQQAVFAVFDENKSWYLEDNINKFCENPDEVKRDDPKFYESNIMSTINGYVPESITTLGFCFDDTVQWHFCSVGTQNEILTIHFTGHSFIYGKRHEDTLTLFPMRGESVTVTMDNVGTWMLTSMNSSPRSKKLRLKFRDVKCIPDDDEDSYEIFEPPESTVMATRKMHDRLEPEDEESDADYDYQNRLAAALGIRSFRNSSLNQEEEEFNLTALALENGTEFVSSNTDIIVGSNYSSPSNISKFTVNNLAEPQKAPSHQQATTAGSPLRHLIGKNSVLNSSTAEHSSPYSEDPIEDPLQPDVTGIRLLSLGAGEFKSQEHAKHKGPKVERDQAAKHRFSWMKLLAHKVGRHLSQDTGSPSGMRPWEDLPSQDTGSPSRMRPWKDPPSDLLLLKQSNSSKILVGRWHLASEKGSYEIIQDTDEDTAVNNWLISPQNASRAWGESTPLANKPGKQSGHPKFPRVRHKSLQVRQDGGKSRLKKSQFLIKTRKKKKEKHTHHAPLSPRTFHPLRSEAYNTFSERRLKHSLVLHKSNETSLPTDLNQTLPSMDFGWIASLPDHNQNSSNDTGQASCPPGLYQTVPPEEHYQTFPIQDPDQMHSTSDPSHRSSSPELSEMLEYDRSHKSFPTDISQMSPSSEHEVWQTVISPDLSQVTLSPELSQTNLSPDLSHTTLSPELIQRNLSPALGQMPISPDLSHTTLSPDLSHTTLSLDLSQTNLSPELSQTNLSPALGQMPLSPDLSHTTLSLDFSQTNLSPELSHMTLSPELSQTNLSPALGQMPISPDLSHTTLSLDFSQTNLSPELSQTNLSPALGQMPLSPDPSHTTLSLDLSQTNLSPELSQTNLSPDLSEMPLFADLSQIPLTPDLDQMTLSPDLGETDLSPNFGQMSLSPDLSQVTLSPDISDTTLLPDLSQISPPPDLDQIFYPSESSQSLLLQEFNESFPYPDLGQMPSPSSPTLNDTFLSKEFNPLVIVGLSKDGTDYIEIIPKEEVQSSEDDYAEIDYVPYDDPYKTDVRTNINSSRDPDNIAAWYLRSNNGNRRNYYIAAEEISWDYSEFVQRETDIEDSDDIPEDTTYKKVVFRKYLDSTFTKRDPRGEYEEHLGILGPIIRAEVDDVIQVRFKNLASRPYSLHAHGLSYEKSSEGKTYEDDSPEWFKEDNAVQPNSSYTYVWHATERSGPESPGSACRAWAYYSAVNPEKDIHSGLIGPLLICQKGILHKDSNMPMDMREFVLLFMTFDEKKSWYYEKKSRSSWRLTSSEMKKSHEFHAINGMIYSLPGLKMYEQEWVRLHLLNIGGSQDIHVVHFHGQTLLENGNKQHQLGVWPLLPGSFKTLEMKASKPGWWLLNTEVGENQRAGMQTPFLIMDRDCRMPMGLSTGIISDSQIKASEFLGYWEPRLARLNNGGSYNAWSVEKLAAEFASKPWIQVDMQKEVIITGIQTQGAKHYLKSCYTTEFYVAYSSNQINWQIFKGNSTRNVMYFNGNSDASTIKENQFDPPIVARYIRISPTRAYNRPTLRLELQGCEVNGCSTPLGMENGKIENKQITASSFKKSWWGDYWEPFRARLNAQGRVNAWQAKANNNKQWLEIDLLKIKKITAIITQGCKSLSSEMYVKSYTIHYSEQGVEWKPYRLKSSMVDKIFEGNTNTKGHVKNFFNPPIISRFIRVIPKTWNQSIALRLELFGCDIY
T1 sequence (P00451 20-2351): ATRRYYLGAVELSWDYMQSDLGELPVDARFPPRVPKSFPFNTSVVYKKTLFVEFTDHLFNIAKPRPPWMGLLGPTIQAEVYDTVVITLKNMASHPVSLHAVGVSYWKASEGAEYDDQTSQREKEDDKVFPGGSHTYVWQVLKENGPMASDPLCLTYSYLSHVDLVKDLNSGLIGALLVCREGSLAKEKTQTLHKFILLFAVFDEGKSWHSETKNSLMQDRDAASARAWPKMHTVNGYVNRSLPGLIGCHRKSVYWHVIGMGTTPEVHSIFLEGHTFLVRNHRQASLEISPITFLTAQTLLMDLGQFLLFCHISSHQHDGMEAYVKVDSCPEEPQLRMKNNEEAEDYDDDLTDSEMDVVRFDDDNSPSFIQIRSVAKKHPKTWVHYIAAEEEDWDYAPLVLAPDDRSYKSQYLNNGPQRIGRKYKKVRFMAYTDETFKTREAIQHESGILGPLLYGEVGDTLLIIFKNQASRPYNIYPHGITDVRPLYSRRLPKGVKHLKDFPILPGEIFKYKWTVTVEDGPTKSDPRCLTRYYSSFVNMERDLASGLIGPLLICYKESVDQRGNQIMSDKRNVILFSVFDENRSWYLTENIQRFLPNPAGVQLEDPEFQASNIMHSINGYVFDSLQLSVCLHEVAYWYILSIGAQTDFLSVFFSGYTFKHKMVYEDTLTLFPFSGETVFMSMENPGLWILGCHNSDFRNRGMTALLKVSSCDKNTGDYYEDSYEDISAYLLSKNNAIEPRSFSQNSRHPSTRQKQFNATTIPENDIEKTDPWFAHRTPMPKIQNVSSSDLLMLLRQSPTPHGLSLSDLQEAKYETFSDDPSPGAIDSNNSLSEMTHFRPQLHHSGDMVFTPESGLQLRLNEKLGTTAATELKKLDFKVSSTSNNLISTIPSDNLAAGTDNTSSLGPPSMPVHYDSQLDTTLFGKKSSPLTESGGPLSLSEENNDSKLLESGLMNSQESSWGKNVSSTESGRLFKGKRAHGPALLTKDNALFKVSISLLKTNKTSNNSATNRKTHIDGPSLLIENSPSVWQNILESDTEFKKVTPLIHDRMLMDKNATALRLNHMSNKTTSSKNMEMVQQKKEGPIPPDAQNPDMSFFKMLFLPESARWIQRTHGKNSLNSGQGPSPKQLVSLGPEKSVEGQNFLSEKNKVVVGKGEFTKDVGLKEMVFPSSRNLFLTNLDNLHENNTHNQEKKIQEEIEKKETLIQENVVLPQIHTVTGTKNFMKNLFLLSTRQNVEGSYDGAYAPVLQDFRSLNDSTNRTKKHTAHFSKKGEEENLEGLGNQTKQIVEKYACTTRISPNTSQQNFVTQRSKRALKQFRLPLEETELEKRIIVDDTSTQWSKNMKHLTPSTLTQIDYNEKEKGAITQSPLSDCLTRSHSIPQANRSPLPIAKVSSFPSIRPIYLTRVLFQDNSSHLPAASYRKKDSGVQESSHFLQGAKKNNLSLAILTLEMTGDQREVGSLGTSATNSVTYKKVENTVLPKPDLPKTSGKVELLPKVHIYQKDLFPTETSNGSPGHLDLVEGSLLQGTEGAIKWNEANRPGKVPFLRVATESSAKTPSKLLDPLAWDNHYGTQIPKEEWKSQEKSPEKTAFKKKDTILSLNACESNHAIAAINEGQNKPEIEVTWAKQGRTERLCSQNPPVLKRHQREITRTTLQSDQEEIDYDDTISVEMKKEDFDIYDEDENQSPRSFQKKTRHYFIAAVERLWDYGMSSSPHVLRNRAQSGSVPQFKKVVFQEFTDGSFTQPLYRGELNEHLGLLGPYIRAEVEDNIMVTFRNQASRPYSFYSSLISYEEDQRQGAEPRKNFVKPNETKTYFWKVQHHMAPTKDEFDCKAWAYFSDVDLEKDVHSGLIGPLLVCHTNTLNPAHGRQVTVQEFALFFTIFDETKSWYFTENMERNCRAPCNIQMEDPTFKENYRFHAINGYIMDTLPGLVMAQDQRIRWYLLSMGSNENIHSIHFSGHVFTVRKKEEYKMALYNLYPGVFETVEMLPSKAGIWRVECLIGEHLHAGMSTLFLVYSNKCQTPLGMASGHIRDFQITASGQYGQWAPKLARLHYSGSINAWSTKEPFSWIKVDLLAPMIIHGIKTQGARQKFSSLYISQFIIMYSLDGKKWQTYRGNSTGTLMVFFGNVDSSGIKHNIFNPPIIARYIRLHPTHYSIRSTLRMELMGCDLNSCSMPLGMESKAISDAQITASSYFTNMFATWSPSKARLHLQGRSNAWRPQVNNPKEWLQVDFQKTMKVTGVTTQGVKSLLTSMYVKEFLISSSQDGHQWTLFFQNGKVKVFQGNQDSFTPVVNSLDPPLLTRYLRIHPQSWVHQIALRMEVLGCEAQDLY

CCN(CC)CC.O=S(O)O [TRIETHYL AMINE BISULFITE, triethyl amine bisulfite]
aggregation of platelets in comparison with an untreated rabbit (platelet rich plasma [1]): markedly decreased

C[N+](C)(C)C [Tetramethyl-ammonium bisulfite]
platelet aggregation, adosine diphosphate (ADP) as a stimulous (platelet rich plasma [2]): inhibited

Sodium bisulfite
PT and PTT (effect in words) (rat plasma; rat plasma in vitro, 0.5 mg/ml): significantly prolong | blood coagulation factors (rat plasma; rat plasma, compared with human plasma): not as sensitive | TT (human plasma [3]; 0.01 mg/ml): 12.07 s | TT (human plasma [3]; 0.05 mg/ml): 12.10 s | TT (human plasma [3]; 0.1 mg/ml): 12.00 s | TT (human plasma [3]; 0.5 mg/ml): 13.97 s | TT (human plasma [3]; 1.0 mg/ml): 16.08 s | TT (human plasma [3]; 5.0 mg/ml): 34.3 s | effect on Factor VIII (F VIII): mildly affected | F VIII (%) (F VIII; 0.01 mg/ml): 62% | F VIII (%) (F VIII; 0.05 mg/ml): 68% | F VIII (%) (F VIII; 0.1 mg/ml): 55% | F VIII (%) (F VIII; 0.5 mg/ml): 58% | F VIII (%) (F VIII; 1.0 mg/ml): 29% | F VIII (%) (F VIII; 5.0 mg/ml): 11% | platelet aggregation [4]: abolishes platelet aggregation | FACTOR V (%) (FACTOR V; 0.01 mg/ml): 74% | FACTOR V (%) (FACTOR V; 0.05 mg/ml): 72% | FACTOR V (%) (FACTOR V; 0.1 mg/ml): 80% | FACTOR V (%) (FACTOR V; 0.5 mg/ml): 70% | FACTOR V (%) (FACTOR V; 1.0 mg/ml): 60% | FACTOR V (%) (FACTOR V; 5.0 mg/ml): 54% | coagulation of human plasma (human plasma [5]): completely disrupted
